Measurements: patent US10336792B2, “Antimicrobial peptide dendrimers” (priority 2014, dated 2019)

Experiments:
[1] = 5(6)-Carboxyfluorescein leakage from lipid vesicles; settings: 10 mM TRIS, 107 mM NaCl, pH 7.4; peptide added at 50 s
Method: Preparation A thin lipid film was prepared by evaporating a solution of 25 mg Egg PC or Egg PG in 1 mL MeOH/CHCl3 1/1 on a rotary evaporator (rt) and then in vacuo overnight. The resulting film was hydrated with 1 mL buffer (50 mM CF, 10 mM TIRS, 10 mM NaCl, pH 7.4) for 30 min, subjected to freeze-thaw cycles (7×) and extrusion (15×) through a polycarbonate membrane (pore size 100 nm). Extravesicular components were removed by gel filtration (Sephadex G-50) with 10 mM TRIS, 107 mM NaCl, pH 7.4. Final conditions: ˜2.5 mM Egg PC or Egg PG; inside: 50 mM CF, 10 mM TIRS, 10 mM NaCl, pH 7.4; outside: 10 mM TRIS, 107 mM NaCl, pH 7.4.
Experiment Egg PC or Egg PG stock solutions (37.5 μL) were diluted with a buffer (10 mM TRIS, 107 mM NaCl, pH 7.4) and placed in a thermostated fluorescence cuvette (25° C.) and gently stirred (total volume in the cuvette ˜3000 μL; final lipid concentration ˜31.25 μM). CF efflux was monitored at λem 517 nm (λex 492 nm) as a function of time after addition of 20 μL of peptide dendrimer in buffer (10 mM TRIS, 107 mM NaCl, pH 7.4) with final concentrations of 1, 5, 7.5, 10, 15, 20, 25, 30 μg/mL at t=50 s and 1.2% trition X-100 (30 μL, 0.012% final concentration) at t=300 s. Fluorescence intensities were normalized to fractional emission intensity I(t) using I(t)=(It−I0)/(I∞−I0) where I0 It at peptide dendrimer addition, I∞=It at saturation of lysis.

[2] = system: Pseudomonas aeruginosa (strain PA01); assay: microbe, parasite or virus in culture; type: cell-based; settings: LB medium, serial 2/3 dilution, 37 °C, 18-24 h
Procedure, shortened: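 Broth microdilution MIC against P. aeruginosa PAO1 in LB: peptides serially diluted by ⅔, bacteria added at OD600 0.001 and incubated 18–24 h at 37 °C. MTT added; MIC is the lowest concentration preventing visible growth.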

[3] = system: P. aeruginosa PEJ2.6, PEJ9.1, ZEM1.A, ZEM9.A (clinical isolates); type: cell-based, Pseudomonas aeruginosa; settings: MH medium, 12-18 h
Procedure, shortened: (§1)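 Broth microdilution in Müller-Hinton medium, two-fold serial dilutions from a starting 32–256 μg/mL, compounds dissolved in PBS; inoculum about 5×10^5 CFU, incubated 37° C ~18 h. MIC taken as lowest concentration with no visible growth by eye; polymyxin as reference.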

Acinetobacter baumannii = type: cell-based; settings: MH medium, 12-18 h
Procedure, shortened: as §1

[4] = system: Staphylococcus aureus (COL, MRSA reference strain); type: cell-based; settings: MH medium, 12-18 h
Procedure, shortened: as §1

In the case of Polymyxin B [reference compound], the “CF leakage from phosphatidylcholine LUVs” value [1] is reported as “behave in the same way”, the “MIC P. aeruginosa PAO1” value [2] is reported as 2 µg/mL and the “MIC P. aeruginosa MDR clinical isolate PEJ2.6” value [3] is reported as 1 µg/mL. For the same substance, the “MIC P. aeruginosa MDR clinical isolate PEJ9.1” value [3] was 2 µg/mL, the “MIC P. aeruginosa MDR clinical isolate ZEM1A” value [3] was less than 1 µg/mL and the “MIC P. aeruginosa MDR clinical isolate ZEM9A” value [3] was 8 µg/mL. The “MIC A. baumannii ATCC19606” value (Acinetobacter baumannii) was less than 1 µg/mL and the “MIC S. aureus COL” value [4] was 64 µg/mL.
